# US6362369B1, “Phthalic acid diamide derivatives fluorine-containing aniline compounds as starting material, agricultural and horticultural insecticides, and a method for application of the insecticides” (Nihon Nohyaku Co., Ltd., priority 1997, dated 2002)
# Tests used:
# Type in all cases: in vivo
# [1] = test system: rice leafroller (Cnaphalocrocis medinalis); test: Insecticidal effect on rice leafroller (Test Example 3); conditions: 500 ppm; rice lamina immersed; third-instar larvae of rice leafroller; four days after inoculation; 25° C., humidity 70%
# Summary of the method: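 Insecticidal effect is judged by a predefined criterion from dead/alive counts four days after infesting air-dried lamina with third-instar larvae, kept on moistened filter paper at 25° C, 70% humidity.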
# [2] = test system: diamondback moth (Plutella xylostella); test: Insecticidal effect on diamondback moth (Test Example 1); conditions: diamondback moth; judged by the mortality criterion of Test Example 1
# Summary of the method: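 Triplicate groups of 10 insects: eggs laid on Chinese cabbage seedling by adults, seedling immersed then air-dried, kept at 25° C. Day-6 hatch counts gave mortality, rated by criterion.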
# [3] = test system: common cutworm (Spodoptera Litura); test: Insecticidal effect on common cutworm (Test Example 2); conditions: 500 ppm; cabbage leaf immersed; second-instar larvae of common cutworm; eight days after inoculation; 25° C.
# Summary of the method: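 After the treated material air-dries, it goes into a dish, second-instar larvae are added, and the dish is closed. Incubation runs at 25° C. On day eight, dead and living larvae are scored, and the calculated mortality is rated on an effect scale.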
SMILES,"Insecticidal effect, Test Example 3 [1]","Insecticidal effect, Test Example 1 [2]","Insecticidal effect, Test Example 2 [3]"
CCc1cc(Cl)ccc1NC(=O)c1cccc(Br)c1C(=O)NC(C)C [compound 271],A (100),A (100),A (100)
Cc1cc(Br)ccc1NC(=O)c1cccc(Br)c1C(=O)NC(C)C [compound 272],A (100),A (100),A (100)
Cc1c(Br)ccc(NC(=O)c2cccc(Br)c2C(=O)NC(C)C)c1C [compound 273],D (79-50),A (100),D (79-50)
Cc1cc(I)ccc1NC(=O)c1cccc(Br)c1C(=O)NC(C)C [compound 274],A (100),A (100),A (100)
Cc1cc(F)ccc1NC(=O)c1cccc(Br)c1C(=O)NC(C)C [compound 275],A (100),A (100),D (79-50)
CC(C)NC(=O)c1c(Br)cccc1C(=O)Nc1ccc(C(F)(F)F)cc1Cl [compound 276],A (100),A (100),A (100)
Cc1cc(C(F)(F)F)ccc1NC(=O)c1cccc(Br)c1C(=O)NC(C)C [compound 277],A (100),A (100),A (100)
Cc1cc(C(F)(F)C(F)(F)F)ccc1NC(=O)c1cccc(Br)c1C(=O)NC(C)C [compound 278],A (100),A (100),A (100)
Cc1cc(C(F)(F)C(F)(F)C(F)(F)F)ccc1NC(=O)c1cccc(Br)c1C(=O)NC(C)C [compound 279],A (100),A (100),A (100)
COc1ccc(NC(=O)c2cccc(Br)c2C(=O)NC(C)C)c(C)c1 [compound 282],A (100),A (100),A (100)
Cc1cc(OCC(F)(F)C(F)F)ccc1NC(=O)c1cccc(Br)c1C(=O)NC(C)C [compound 283],A (100),A (100),A (100)
Cc1ccc(NC(=O)c2cccc(Br)c2C(=O)NC(C)C)c(C)c1OC(F)F [compound 284],A (100),A (100),A (100)
COc1ccc(NC(=O)c2cccc(Br)c2C(=O)NC(C)C)c(C)c1C [compound 285],A (100),A (100),D (79-50)
CC(C)NC(=O)c1c(Br)cccc1C(=O)Nc1ccc(OC(F)(F)F)cc1Cl [compound 286],A (100),A (100),A (100)
CC(C)NC(=O)c1c(Br)cccc1C(=O)Nc1ccc(OC(F)(F)F)cc1Br [compound 287],A (100),A (100),A (100)
Cc1cc(OC(F)F)ccc1NC(=O)c1cccc(Br)c1C(=O)NC(C)C [compound 288],A (100),A (100),A (100)

SMILES,"Insecticidal effect, Test Example 3 [1]","Insecticidal effect, Test Example 1 [2]","Insecticidal effect, Test Example 2 [3]"
Cc1cc(OC(F)(F)F)ccc1NC(=O)c1cccc(Br)c1C(=O)NC(C)C [compound 289],A (100),A (100),A (100)
Cc1cc(OC(F)(F)Br)ccc1NC(=O)c1cccc(Br)c1C(=O)NC(C)C [compound 290],A (100),A (100),A (100)
Cc1cc(OC(F)(F)C(F)C(F)(F)F)ccc1NC(=O)c1cccc(Br)c1C(=O)NC(C)C (stereo not drawn) [compound 291],A (100),A (100),A (100)
Cc1cc(OC(F)(F)C(F)Cl)ccc1NC(=O)c1cccc(Br)c1C(=O)NC(C)C (stereo not drawn) [compound 292],A (100),A (100),A (100)
Cc1cc(OC(F)(F)C(F)F)ccc1NC(=O)c1cccc(Br)c1C(=O)NC(C)C [compound 293],A (100),A (100),A (100)
Cc1c(NC(=O)c2cccc(Br)c2C(=O)NC(C)C)ccc(OC(F)F)c1Cl [compound 294],A (100),A (100),A (100)
CSc1ccc(NC(=O)c2cccc(Br)c2C(=O)NC(C)C)c(C)c1 [compound 296],A (100),A (100),A (100)
Cc1cc(Oc2cccc(C(F)(F)F)c2)ccc1NC(=O)c1cccc(Br)c1C(=O)NC(C)C [compound 297],B (99-90),A (100),A (100)
Cc1cc(Oc2ncc(C(F)(F)F)cc2Cl)ccc1NC(=O)c1cccc(Br)c1C(=O)NC(C)C [compound 298],A (100),A (100),A (100)
Cc1cc(Oc2ccc(C(F)(F)F)cn2)ccc1NC(=O)c1cccc(Br)c1C(=O)NC(C)C [compound 299],A (100),A (100),A (100)
CC(C)NC(=O)c1cccc(Br)c1C(=O)Nc1ccc(C(F)(F)F)cc1 [compound 301],D (79-50),A (100),A (100)
Cc1c(Cl)cccc1NC(=O)c1c(Br)cccc1C(=O)NC(C)C [compound 305],A (100),A (100),A (100)
Cc1cc(Cl)ccc1NC(=O)c1c(Br)cccc1C(=O)NC(C)C [compound 306],A (100),A (100),A (100)
Cc1c(Br)ccc(NC(=O)c2c(Br)cccc2C(=O)NC(C)C)c1C [compound 312],A (100),A (100),A (100)
Cc1cc(I)ccc1NC(=O)c1c(Br)cccc1C(=O)NC(C)C [compound 313],A (100),A (100),A (100)
Cc1cc(C(F)(F)F)ccc1NC(=O)c1c(Br)cccc1C(=O)NC(C)C [compound 316],A (100),A (100),A (100)
